Consider eleven molecules from patent US5834012A, “Lipid complexed topoisomerase I inhibitors” (Perez-Soler; Roman, priority 1995, dated 1998).

The nature of series [1]: Lipids screened for complexation with CPT (fluorescent microscopy; % bound). It is filed as physicochemical. As to conditions: for % bound to CPT / Crystals: Table 1; for Crystals: lipid alone with CPT, fluorescent microscopy. An excerpt: (§1) In order to prepare LC-CPT (a liposomal preparation containing CPT within spherical lipid vesicles) various individual lipids were screened for complexation with CPT. […] CPT crystals and lipid/CPT complexes of >0.4 microns can be visualized under a fluorescent microscope (since CPT fluoresces due to its rigid ring structure). […] Therefore, the better a lipid complexes with CPT the less CPT crystals are formed, and the more lipid/CPT complexes are formed.
Drug/lipid Complex Preparation. CPT was mixed in ratios of from 2:1 to 25:1 w/w lipid:drug in chloroform-methanol (8:1). For studies where CPT was radiolabeled, approximately 0.02 uCi/ml [^3 H] CPT was added to the preparation. Trace quantities of ^14 C labeled cholesterol was added to samples requiring lipid labeling. For small samples, the lipids were dried in 12×75 mm culture tubes under a stream of nitrogen gas. For large samples, a rotavapor (Buchi RE140, Switzerland) was used to dry lipids in a 100 to 1000 ml round bottom flasks. […] For liposomal CPT 0.9% Nace was used. Preparations were screened for lipid entrapment by light and fluorescent microscopy (Nikon Labophot-2, Japan). […]
Lipids of varying carbon chain length, charge, and saturation, alone or in different combinations, were empirically screened for their ability to form liposomes incorporating CPT by fluorescent microscopy.

Series [2] can be described thus: Complexation with CPT / liposome formation by fluorescent microscopy. Type of series: physicochemical.
Text: as §1
Drug/lipid Complex Preparation. CPT was mixed in ratios of from 2:1 to 25:1 w/w lipid:drug in chloroform-methanol (8:1). For studies where CPT was radiolabeled, approximately 0.02 uCi/ml [^3 H] CPT was added to the preparation. Trace quantities of ^14 C labeled cholesterol was added to samples requiring lipid labeling. For small samples, the lipids were dried in 12×75 mm culture tubes under a stream of nitrogen gas. For large samples, a rotavapor (Buchi RE140, Switzerland) was used to dry lipids in a 100 to 1000 ml round bottom flasks. The lipophilic film was then vortexed in a Touch Mixer Model 231 (Fisher Scientific, Fair Lawn, N.J., U.S.A.) for one minute in sterile phosphate buffered saline (pH 7.4). For liposomal CPT 0.9% Nace was used. Preparations were screened for lipid entrapment by light and fluorescent microscopy (Nikon Labophot-2, Japan).
To increase the cytotoxic effects of LC-CPT relative to CPT, lipid must surround (encapsulate) the CPT to protect it from inactivation. Since the cytotoxicity of LC-CPT was similar to that of the free drug, the CPT was not encapsulated by the lipid (DO-NGPE). Encapsulation (and concomitant protection from inactivation) can be accomplished by surrounding CPT in a liposome (a unilamellar or multilamellar structure). […] Therefore, LC-CPT appears to only contain enough lipid to form micellar aggregates of CPT or to form a hydrophobic scaffold for CPT-CPT aggregation.
The inventors attempted to protect the CPT from inactivation by surrounding the existing DO-NGPE:CPT complex with a liposome (Table 3) or by adding another lipid to DO-NGPE to form a liposome. […]

Series [3] deals with human tumors. The following applies: cited from earlier work.
For series [4] the following is noted: Hertzberg et al., 1989; cited from earlier work.
Series [5] is described as follows: Chromatographic evaluation of CPT in the liposome fraction. It is filed as physicochemical. As to conditions: lipid used alone. On the procedure:
Chromatography. A 30 cm agarose 0.5M column is used to separate liposome-bound drug from free CPT. PBS is used as the mobile phase for all preparations. Twenty samples were collected in 3 mL aliquots for a total of 60 mLs. Fluorescence and scintigraphy were used to detect encapsulated and free drug. Fluorimetry. Aliquots of 20 μl from each collection tube were transferred to cuvets containing 2 ml methanol. Fluorimetry was performed as described by Hart et al. (Hart et al., 1969). Fluorescence was measured at an excitation wavelength of 370 nm and emission wavelength of 434 nm (Perkin-Elmer MPF44A, Norwalk, Conn., U.S.A.). Two ml of ethanol was used as a control for machine calibration.
Chromatographic evaluation confirmed that <5% of CPT was incorporated in the liposome fraction of the preparation, the rest presumably being solubilized or in small particles not detectable by fluorescence microscopy.
These observation led the present inventors to other negatively charged lipids. […] Chromatographic evaluation of these preparations confirmed again that <5% of CPT eluted with the liposome fraction, the rest of the drug eluting later in a large number of consecutive fractions. By differential centrifugation, the lipid-binding efficiency of cardiolipin was about 67% and that of DO-NGPE 97%. DO-NGPE-CPT was, therefore, selected for further biological and pharmacological studies.

Structures can show the parent of a compound that is named as a salt.

For the molecule `CCCCCCCCCCCCCCCCCC(=O)OC[C@H](COP(=O)([O-])OCC[N+](C)(C)C)OC(=O)CCCCCCCCCCCCC` [1-Stearoyl, 2-Myristdyl PC], in series [1], the “% bound to CPT” value is recorded as less than 5% and the Crystals result is recorded as “yes”.
On to `CCCCCC(=O)OC[C@H](COP(=O)([O-])OCC[N+](C)(C)C)OC(=O)CCCCC` [Dicaproyl PC], for which, in series [1], the “% bound to CPT” value was less than 5% and the Crystals result is “yes”.
Consider `CCCCCCCC/C=C\CCCCCCCC(=O)OCC(C[N+](C)(C)C)OC(=O)CCCCCCC/C=C\CCCCCCCC` (stereo not shown) [DOTAP, 1,2-Dioleoyl-3-Trimethylammonium-Propane], for which the “complexation with CPT / liposome formation / CPT crystals (in words)” value in series [2] is recorded as “complex well with CPT”.
With `CCCCCCCC/C=C\CCCCCCCC(=O)O[C@H](COC(=O)CCCCCCCCCCCCCCCCC)COP(=O)([O-])OCC[N+](C)(C)C` [1-Stearoyl, 2-Oleoyl PC], in series [1], the “% bound to CPT” value was less than 5% and the Crystals result is listed as “yes”.
In the same order, the values of `CCCCCCCCCCCCCC(=O)OC[C@H](COP(=O)(O)OCC(O)CO)OC(=O)CCCCCCCCCCCCC` (mixture of isomers) [Dimyristoyl PG, 1,2-Dimyristoyl-sn-Glycero-3-[Phospho-rac-(1-glycerol)]] are less than 5% and “yes”.
Turning to `CCCCCCCCCCCCCCCCCC(=O)OC[C@H](COP(=O)([O-])OCC[N+](C)(C)C)OC(=O)CCCCCCCCCCCCCCCCC` [Distearoyl PC], in series [1], the “% bound to CPT” value is on record as less than 5% and the Crystals entry was “yes”.
In the case of `CC[C@@](O)(C(=O)O)c1cc2n(c(=O)c1CO)Cc1cc3ccccc3nc1-2` [sodium salt of CPT, camptothecin sodium], the dose-limiting toxicity entry in series [3] (clinical trials, early 1970's) was “dose-limiting leukopenia, cystitis, and gastroenteritis”. Besides, the “clinical antitumor activity (in words)” value in series [3] (intestinal tumors metastatic to the liver) was “demonstrated activity in human tumors”. For the same molecule, the “activity relative to closed lactone ring base (in words)” value in series [4] is “significantly less active than the lipophilic base compound”.
Turning to `CCCCCCCCCCCCCC(=O)OC[C@H](COP(=O)([O-])OCC[N+](C)(C)C)OC(=O)CCCCCCCCCCCCC` [Dimyristoyl PC, 1,2-Dimyristoyl-sn-Glycero-3-Phosphocholine], in series [1], the “% bound to CPT” value is listed as less than 5% and the Crystals entry is given as “yes”.
For `CCCCCCCC/C=C\CCCCCCCC(=O)OC[C@H](COP(=O)(O)OCC(O)CO)OC(=O)CCCCCCC/C=C\CCCCCCCC` (mixture of isomers) [Dioleoyl PG, 1,2-Dioleoyl-sn-Glycero-3-[Phospho-rac-(1-glycerol)]], in series [1], the “interaction with CPT (in words)” value was “lack of drug crystallization”, the “% bound to CPT” value was less than 5% and the Crystals result is recorded as “no”. The “CPT incorporated in / eluted with the liposome fraction” value in series [5] is listed as less than 5%.
As for `CCCCCCCC/C=C/CCCCCCCC(=O)OC[C@H](COP(=O)([O-])OCC[N+](C)(C)C)OC(=O)CCCCCCC/C=C/CCCCCCCC` [Dielaidoyl PC], the “complexation with CPT / liposome formation / CPT crystals (in words)” value in series [2] is recorded as “complex well with CPT”.
Regarding `CCCCCCCC/C=C\CCCCCCCC(=O)OC[C@H](COP(=O)(O)OCCN)OC(=O)CCCCCCC/C=C\CCCCCCCC` [DOPE, 1,2-Dioleoyl-sn-Glycero-3-Phosphoethanolamine], the “complexation with CPT / liposome formation / CPT crystals (in words)” value in series [2] is reported as “complex well with CPT”.
